Reference: ChEMBL document CHEMBL1201862, “PubChem BioAssay data set” (2004)
Activity calls are given as the source filed them.

Experiments:
[1] = target: E3 ubiquitin-protein ligase Mdm2 (Homo sapiens, UniProt Q00987); experiment: MDM2-luc reporter signal enhancers, multi-concentration potency testing, MDM2 ubiquitin-protein ligase inhibitor program, whole-cell format, luminescence detection, 384-well microplate (AID 1394); type: functional;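 note: MDM2 E3 inhibitors raise luminescence so EC50 is for signal enhancement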
NADPH oxidase 1 = NADPH oxidase 1 (Homo sapiens, UniProt Q9Y5S8); experiment: Late-stage luminescence-based cell-based dose response assay to identify inhibitors of NADPH oxidase 1 (NOX1): Purchased analogs 2.; type: functional
Streptococcus = experiment: GAS UMAA2166 growth inhibition – luminescence, BacTiterGlo, counter-screen for streptokinase expression inhibitor project, dose response (AID 1915); type: functional, organism-based;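 note: potency for reduction of bacterial viability or growth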
Streptokinase A = target: T1, Streptokinase A (Streptococcus pyogenes serotype M1, UniProt P10520); experiment: viability-normalized secreted streptokinase activity reduction – plasminogen activation absorbance, OD405, dose response (AID 1914); type: functional, Streptococcus pyogenes M1 GAS;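 note: secreted streptokinase activity via plasminogen activation per viability signal from cell pellet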
T1 sequence (P10520 whole entry): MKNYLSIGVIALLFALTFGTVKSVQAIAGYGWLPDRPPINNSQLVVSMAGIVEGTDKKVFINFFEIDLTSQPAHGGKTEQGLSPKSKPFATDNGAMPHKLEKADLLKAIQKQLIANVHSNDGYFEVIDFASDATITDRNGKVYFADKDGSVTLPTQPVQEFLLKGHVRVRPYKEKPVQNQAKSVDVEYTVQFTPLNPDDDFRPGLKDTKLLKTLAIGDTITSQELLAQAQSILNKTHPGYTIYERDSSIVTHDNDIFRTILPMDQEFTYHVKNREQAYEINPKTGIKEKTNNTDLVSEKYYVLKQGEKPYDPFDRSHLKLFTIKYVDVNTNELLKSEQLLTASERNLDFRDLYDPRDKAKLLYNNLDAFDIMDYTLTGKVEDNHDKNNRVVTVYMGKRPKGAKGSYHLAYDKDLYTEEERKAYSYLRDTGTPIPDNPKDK

[2] = target: Voltage-gated inwardly rectifying potassium channel KCNH2 (Homo sapiens, UniProt Q12809); experiment: concentration-dependent hERG rescue from blockers – cell-based, thallium flux, dose response (AID 2121); type: ADME
[3] = Trypanosoma cruzi growth suppression in host cells – NIH3T3 host cells, beta-gal luminescence, confirmation (AID 2044); type: functional, cell-based;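 note: intracellular parasites grown in NIH/3T3 mouse fibroblasts as host cells; luminescent beta-galactosidase reporter signal from transgenic T. cruzi replicating inside host cells; inhibitors lower the luminescence signal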
[4] = system: Streptococcus sp. 'group A'; experiment: Streptococcus pyogenes SK(-)GAS viability under kanamycin – luminescence, BacTiterGlo, confirmation, counter-screen for streptokinase expression inhibitor project, dose response (AID 1900); type: functional, organism-based
[5] = NIH3T3 cell viability loss – ATP luminescence, mouse fibroblasts, counter-screen, dose response (AID 2010); type: functional, cell-based;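 note: cells exposed to compound for about 90 hours before reading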
Genome polyprotein = Genome polyprotein (Hepatitis C virus, UniProt Q2Q167); experiment: disruption of hepatitis C core self-association – biochemical, TR-FRET, dose response (AID 2159); set-up: species or system Hepacivirus hominis;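 note: blocks dimerization of HCV core protein measured by TR-FRET between tagged core106 pairs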
INS1 = experiment: INS-1E survival protection against cytokine death – cell-based, luminescence, retest, dose response (AID 449756); type: functional; details: Rattus norvegicus, INS1;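 note: cell death triggered by IL-1 beta plus TNF-alpha plus IFN-gamma mixture; protective hits raise ATP signal compared with cytokine alone wells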
[6] = target: Mitochondrial peptide methionine sulfoxide reductase (Bos taurus, UniProt P54149); experiment: Absorbance-based biochemical high throughput dose response assay for activators of Methionine sulfoxide reductase A (MsrA).; type: functional
[7] = target: Serine/threonine-protein phosphatase PP1-alpha catalytic subunit (Homo sapiens, UniProt P62136); experiment: inhibition of protein phosphatase 1 activity – biochemical, fluorescence, dose response (AID 2394)
[8] = target: Induced myeloid leukemia cell differentiation protein Mcl-1 (Homo sapiens, UniProt Q07820); type: functional
[9] = target: Serine/threonine-protein phosphatase (Homo sapiens, UniProt Q9BPW0); experiment: inhibition of protein phosphatase 5 activity – biochemical, fluorescence, dose response (AID 2395)
Bcl-2-related protein A1 = target: T2, Bcl-2-related protein A1 (Mus musculus, UniProt Q07440); type: functional;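 note: confirmatory dose–response counterscreen on Bfl-1, used to check hits from a UBC13 polyubiquitin inhibitor campaign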
T2 sequence (Q07440 whole entry): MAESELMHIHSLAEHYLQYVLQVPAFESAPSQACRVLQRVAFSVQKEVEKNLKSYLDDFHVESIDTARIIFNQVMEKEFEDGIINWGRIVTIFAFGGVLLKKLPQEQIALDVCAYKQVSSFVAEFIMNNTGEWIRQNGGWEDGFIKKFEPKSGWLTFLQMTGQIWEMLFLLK

[10] = target: T3, Ubiquitin-conjugating enzyme E2 N (Homo sapiens, UniProt P61088); type: functional
T3 sequence (P61088 whole entry): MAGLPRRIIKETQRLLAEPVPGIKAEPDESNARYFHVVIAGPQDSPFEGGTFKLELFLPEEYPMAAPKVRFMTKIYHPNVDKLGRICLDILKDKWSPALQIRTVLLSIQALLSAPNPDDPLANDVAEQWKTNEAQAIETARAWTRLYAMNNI

[11] = target: T4, Apoptotic protease-activating factor 1 (Homo sapiens, UniProt O14727); type: functional
T4 sequence (O14727 whole entry): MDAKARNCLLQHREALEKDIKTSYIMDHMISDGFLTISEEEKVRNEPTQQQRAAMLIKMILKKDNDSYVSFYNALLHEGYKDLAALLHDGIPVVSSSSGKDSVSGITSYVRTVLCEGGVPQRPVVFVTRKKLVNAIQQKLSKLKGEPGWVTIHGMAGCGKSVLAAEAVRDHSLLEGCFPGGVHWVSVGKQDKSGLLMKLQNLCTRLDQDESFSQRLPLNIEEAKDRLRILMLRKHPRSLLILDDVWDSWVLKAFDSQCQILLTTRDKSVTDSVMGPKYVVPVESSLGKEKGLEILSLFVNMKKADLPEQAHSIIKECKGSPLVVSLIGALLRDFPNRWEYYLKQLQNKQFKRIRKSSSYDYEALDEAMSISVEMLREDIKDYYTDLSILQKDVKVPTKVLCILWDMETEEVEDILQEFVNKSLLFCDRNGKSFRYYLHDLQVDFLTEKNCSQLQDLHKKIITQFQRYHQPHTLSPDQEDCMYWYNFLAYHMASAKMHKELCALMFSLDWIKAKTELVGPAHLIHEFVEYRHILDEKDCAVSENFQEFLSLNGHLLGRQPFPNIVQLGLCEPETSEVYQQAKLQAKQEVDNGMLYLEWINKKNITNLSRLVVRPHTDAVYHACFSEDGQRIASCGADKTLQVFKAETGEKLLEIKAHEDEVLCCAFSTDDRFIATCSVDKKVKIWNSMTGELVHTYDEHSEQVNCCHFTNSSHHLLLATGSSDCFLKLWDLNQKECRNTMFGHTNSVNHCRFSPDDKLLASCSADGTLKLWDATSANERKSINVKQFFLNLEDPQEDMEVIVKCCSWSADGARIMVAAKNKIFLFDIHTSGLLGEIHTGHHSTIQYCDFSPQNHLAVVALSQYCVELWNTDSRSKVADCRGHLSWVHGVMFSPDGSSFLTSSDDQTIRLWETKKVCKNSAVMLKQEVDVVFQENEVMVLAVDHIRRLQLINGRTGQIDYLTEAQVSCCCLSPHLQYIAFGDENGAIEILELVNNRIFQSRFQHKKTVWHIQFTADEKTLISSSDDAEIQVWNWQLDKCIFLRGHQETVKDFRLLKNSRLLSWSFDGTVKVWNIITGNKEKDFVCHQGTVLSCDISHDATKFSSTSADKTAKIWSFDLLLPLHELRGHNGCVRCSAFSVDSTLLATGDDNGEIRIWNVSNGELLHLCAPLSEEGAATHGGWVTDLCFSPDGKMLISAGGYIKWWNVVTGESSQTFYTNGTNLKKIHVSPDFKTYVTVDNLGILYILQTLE

Vasopressin V1a receptor = Vasopressin V1a receptor (Homo sapiens, UniProt P37288); experiment: Fluorescence-based cell-based high throughput dose response screening assay for agonists of the vasopressin 1 receptor (V1R).; type: functional
Oxytocin receptor = Oxytocin receptor (Homo sapiens, UniProt P30559); experiment: Counterscreen for vasopressin 1 receptor (V1R) agonists: Fluorescence-based cell-based high throughput dose response assay for agonists of the Oxytocin Receptor (OXTR). [Related pubchem assays: 2435 (Primary screen (OXTR agonists in singlicate)), 434964 (Confirmation screen (V1R agonists in triplicate)), 434969 (Counterscreen (OXTR agonists in …; type: functional
[12] = target: T3, Ubiquitin-conjugating enzyme E2 N; type: functional; remark: listed apart in the source
[13] = glucagon-like peptide-1 release potency in STC-1, concentration-response, half-maximal inhibitory concentration in the STC-1 line (AID 1117345); type: functional, cell-based
Melanocortin receptor 4 = Melanocortin receptor 4 (Homo sapiens, UniProt P32245); type: functional, cell-based;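 note: Cell-based assay with luminescence read-out, confirmatory dose-response testing for agonist activity of biased ligands at MC4R; human U2OS cells with tagged receptor and beta-arrestin; potency of agonists that increase receptor coupling to beta-arrestin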
[14] = Potency on glucagon-like peptide 1 release, dose-response in NCI-H716 cell line, half maximal inhibitory concentration (AID 1117344); type: functional, cell-based
[15] = target: T5, DNA repair protein RAD52 homolog (Homo sapiens, UniProt P43351); type: functional, biochemical
T5 sequence (P43351 whole entry): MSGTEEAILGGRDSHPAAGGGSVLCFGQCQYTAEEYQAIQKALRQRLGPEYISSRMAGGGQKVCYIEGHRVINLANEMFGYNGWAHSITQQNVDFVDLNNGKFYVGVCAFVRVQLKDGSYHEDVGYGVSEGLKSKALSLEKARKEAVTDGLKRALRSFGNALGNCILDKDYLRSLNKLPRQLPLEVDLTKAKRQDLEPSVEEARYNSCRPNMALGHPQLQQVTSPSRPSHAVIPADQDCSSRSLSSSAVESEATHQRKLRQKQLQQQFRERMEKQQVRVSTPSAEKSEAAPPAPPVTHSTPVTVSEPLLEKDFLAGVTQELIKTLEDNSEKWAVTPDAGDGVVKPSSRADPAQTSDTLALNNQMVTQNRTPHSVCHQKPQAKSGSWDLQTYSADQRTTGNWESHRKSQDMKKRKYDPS

Sequence of Vasopressin V1a receptor (P37288 whole entry): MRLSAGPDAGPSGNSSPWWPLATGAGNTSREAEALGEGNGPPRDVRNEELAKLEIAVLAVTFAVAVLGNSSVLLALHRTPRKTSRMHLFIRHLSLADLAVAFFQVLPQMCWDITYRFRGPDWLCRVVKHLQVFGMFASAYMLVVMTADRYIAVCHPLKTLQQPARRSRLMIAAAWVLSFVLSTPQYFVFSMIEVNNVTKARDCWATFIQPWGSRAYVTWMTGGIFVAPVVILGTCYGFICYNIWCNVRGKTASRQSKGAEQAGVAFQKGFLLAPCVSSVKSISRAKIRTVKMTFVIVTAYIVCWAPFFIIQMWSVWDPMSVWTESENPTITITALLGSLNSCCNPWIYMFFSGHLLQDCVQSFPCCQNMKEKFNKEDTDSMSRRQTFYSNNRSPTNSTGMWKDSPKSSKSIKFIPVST
Sequence of Oxytocin receptor (P30559 whole entry): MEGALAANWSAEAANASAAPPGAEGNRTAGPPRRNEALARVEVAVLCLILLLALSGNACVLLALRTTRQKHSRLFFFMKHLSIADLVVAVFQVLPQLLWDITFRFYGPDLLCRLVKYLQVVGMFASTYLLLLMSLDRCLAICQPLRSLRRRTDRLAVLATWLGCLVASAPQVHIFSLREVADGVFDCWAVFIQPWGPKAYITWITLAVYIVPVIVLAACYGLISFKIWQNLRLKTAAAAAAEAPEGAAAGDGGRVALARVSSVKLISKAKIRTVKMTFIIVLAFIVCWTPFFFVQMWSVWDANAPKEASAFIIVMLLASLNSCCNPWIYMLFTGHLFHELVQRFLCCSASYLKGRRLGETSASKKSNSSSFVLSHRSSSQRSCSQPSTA
Sequence of Induced myeloid leukemia cell differentiation protein Mcl-1 (Q07820 whole entry): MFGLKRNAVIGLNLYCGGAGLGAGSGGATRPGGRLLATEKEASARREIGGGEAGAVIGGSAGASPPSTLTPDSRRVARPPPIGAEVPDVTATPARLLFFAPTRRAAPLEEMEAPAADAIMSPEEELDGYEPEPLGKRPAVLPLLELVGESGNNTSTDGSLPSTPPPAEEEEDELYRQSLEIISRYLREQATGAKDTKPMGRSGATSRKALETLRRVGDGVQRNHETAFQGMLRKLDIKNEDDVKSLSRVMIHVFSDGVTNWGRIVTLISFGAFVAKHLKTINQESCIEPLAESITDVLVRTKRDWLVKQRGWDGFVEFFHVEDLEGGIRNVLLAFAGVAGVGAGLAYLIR
Sequence of NADPH oxidase 1 (Q9Y5S8 whole entry): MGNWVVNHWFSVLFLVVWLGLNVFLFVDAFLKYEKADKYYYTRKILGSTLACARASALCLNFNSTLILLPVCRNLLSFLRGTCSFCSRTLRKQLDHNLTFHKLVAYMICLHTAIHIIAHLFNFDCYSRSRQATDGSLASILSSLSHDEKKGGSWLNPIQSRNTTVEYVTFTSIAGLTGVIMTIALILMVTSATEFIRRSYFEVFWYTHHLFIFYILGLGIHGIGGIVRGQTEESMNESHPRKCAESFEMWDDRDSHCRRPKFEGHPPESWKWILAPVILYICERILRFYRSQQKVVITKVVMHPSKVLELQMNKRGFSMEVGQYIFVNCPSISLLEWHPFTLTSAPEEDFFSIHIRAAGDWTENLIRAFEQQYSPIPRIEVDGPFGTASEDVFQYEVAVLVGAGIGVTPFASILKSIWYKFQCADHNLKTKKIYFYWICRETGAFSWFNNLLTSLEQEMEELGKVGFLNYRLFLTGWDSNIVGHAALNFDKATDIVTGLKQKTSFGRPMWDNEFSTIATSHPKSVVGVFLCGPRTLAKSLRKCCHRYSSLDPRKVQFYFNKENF
Sequence of Serine/threonine-protein phosphatase (Q9BPW0 whole entry): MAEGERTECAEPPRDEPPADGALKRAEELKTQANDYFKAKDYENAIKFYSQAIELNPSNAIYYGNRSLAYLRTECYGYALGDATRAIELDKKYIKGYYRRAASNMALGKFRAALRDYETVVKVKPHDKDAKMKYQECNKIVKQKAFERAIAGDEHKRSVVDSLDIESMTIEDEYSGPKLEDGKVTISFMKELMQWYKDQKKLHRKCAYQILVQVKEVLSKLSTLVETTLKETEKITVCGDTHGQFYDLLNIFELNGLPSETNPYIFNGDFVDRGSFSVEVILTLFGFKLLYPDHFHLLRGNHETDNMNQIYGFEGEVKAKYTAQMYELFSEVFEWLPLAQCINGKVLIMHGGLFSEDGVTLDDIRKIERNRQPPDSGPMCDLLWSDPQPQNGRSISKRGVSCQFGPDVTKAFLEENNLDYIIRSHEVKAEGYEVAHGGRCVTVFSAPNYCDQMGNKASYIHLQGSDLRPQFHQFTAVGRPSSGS
Sequence of Voltage-gated inwardly rectifying potassium channel KCNH2 (Q12809 whole entry): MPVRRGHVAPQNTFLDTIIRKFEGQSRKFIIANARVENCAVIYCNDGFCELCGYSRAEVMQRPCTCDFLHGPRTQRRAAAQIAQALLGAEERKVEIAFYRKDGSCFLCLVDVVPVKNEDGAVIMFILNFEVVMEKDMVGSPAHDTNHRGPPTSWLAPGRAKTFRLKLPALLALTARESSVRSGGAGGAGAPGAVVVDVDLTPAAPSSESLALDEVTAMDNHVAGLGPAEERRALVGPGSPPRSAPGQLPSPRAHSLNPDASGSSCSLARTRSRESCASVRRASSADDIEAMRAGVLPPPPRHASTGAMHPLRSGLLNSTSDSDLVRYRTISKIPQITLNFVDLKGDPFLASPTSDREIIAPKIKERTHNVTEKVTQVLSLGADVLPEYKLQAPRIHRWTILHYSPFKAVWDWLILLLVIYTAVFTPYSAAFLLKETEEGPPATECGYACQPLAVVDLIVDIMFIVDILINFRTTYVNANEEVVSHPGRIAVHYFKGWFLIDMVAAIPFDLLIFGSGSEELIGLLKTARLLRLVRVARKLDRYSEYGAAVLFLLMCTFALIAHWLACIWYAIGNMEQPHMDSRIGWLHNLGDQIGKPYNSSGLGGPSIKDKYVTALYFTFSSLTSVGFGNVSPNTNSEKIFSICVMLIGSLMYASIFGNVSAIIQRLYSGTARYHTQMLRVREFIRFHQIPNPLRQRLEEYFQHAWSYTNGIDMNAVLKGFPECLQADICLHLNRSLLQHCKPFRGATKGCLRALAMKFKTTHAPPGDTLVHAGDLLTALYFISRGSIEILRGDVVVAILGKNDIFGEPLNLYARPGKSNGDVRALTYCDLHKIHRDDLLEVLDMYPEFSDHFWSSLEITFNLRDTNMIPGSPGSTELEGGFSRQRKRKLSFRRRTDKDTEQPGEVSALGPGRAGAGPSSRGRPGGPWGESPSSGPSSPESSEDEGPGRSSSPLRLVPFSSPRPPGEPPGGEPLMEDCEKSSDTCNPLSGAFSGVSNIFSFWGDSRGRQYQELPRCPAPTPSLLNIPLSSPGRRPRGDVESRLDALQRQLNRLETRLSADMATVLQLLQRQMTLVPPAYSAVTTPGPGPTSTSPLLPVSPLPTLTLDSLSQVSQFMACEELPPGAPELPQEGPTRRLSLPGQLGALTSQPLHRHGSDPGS
Sequence of E3 ubiquitin-protein ligase Mdm2 (Q00987 whole entry): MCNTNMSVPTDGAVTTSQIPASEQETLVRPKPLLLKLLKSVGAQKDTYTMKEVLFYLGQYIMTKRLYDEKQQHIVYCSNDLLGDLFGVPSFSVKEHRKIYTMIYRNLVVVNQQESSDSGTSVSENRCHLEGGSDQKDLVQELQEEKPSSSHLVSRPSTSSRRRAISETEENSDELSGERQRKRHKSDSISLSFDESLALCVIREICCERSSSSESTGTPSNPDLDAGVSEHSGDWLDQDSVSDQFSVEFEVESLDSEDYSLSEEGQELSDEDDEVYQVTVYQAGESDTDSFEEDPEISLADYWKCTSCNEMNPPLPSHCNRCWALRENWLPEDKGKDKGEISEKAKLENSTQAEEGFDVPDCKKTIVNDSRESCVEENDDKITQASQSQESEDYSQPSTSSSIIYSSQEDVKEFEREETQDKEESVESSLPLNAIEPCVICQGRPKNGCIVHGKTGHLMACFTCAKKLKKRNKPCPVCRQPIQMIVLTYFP
Sequence of Mitochondrial peptide methionine sulfoxide reductase (P54149 whole entry): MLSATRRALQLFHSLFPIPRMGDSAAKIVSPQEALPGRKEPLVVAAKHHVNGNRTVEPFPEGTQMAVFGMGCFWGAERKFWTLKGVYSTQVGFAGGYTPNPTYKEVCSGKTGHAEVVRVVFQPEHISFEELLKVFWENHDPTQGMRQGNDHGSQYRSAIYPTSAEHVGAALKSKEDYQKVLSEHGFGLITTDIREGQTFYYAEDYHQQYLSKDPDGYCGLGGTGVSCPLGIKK
Sequence of Genome polyprotein (Q2Q167 whole entry): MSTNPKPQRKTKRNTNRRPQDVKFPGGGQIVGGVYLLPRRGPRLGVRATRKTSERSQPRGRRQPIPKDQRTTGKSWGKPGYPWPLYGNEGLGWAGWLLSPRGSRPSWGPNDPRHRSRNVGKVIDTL
Sequence of Melanocortin receptor 4 (P32245 whole entry): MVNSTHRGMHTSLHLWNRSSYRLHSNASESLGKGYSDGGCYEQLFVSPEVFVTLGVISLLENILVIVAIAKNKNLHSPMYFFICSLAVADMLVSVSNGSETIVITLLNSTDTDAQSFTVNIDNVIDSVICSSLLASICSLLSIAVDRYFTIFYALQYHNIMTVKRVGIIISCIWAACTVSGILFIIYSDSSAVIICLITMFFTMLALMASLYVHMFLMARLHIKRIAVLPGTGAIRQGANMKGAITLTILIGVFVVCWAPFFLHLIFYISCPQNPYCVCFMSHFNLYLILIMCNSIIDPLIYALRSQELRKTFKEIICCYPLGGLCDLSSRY
Sequence of Serine/threonine-protein phosphatase PP1-alpha catalytic subunit (P62136 whole entry): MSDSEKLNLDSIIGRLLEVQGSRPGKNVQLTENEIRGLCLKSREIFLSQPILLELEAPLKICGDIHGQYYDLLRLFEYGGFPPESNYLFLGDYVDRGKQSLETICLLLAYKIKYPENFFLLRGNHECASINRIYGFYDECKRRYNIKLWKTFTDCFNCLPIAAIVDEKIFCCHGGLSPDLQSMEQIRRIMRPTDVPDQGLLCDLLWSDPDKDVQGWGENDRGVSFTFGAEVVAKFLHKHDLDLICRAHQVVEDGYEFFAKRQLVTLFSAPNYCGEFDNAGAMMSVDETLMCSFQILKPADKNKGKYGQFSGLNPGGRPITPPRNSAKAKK

With `CCOC(=O)C1CCN(C(=S)Nc2cc(C)ccc2C)CC1` the EC50 [1] was 4.34 µM (not active).
For `COc1ccc(NS(=O)(=O)Cc2ccc(N)cc2)cc1`, the IC50 (NADPH oxidase 1) was > 17 µM (not active).
For `CC(C)COc1ccc(-c2nn(-c3ccccc3)cc2C(=O)Nc2nccs2)cc1`, the EC50 (Streptococcus) was > 150 µM (not active), the EC50 (Streptokinase A) was > 150 µM (not active) and the EC50 [2] was 1.04 µM (active). For the same molecule, the EC50 [3] was 2.21 µM (active), the EC50 [4] was 48.3 µM (active) and the EC50 [5] was > 30 µM (not active).
In the case of `CC1(O)C(=O)C=C2C=C(c3ccc(C#N)cc3)OC=C2C1=O` (stereo unspecified), the IC50 (Genome polyprotein) is reported as > 49.8 µM (not active).
With `Cc1cc(C)c(S(=O)(=O)/N=C2/C=C(Sc3nc[nH]n3)C(=O)c3ccccc32)cc1C` the AC50 (INS1) was 2.6 µM (active), the EC50 [6] was > 104 µM (inactive) and the IC50 [7] was 18.6 µM (not active). The IC50 [8] was 3.07 µM (active) and the IC50 [9] was 4.19 µM (active).
In the case of `C#CCOCCOCCOCCNc1nc(N2CCN(C(=O)CCCCCCCCCCNC(=O)[C@@H](CCC(=O)O)n3cc(CCCCCN)nn3)CC2)nc(N2CCN(C(=O)CCCCCCCCCCNC(=O)[C@H](CCCCN)n3cc(C[C@@H](C)CC)nn3)CC2)n1`, the IC50 (Bcl-2-related protein A1) is reported as > 20 µM (inactive), the IC50 [10] is reported as 11.4 µM (active) and the IC50 [11] is reported as 27.2 µM (active). The EC50 (Vasopressin V1a receptor) was 8.37 µM (active), the EC50 (Oxytocin receptor) was > 29.9 µM (not active) and the IC50 [12] was 4.52 µM (active).
In the case of `CC(C)(C)CC(C)(C)c1ccc(OCCOCC[N+](C)(C)Cc2ccccc2)cc1` [BENZETHONIUM CHLORIDE], the IC50 [10] is reported as > 20 µM (inactive), the IC50 [11] is reported as 23.5 µM (active) and the IC50 [13] is reported as 13.8 µM (inactive). The EC50 (Melanocortin receptor 4) was > 89.2 µM (inactive), the IC50 [14] was 21.9 µM (inactive) and the AC50 [15] was 31.3 µM (active).
